Earlier results in patent US7514574B2, “Biodegradable penetration enhancers with multiple hydrophilic moieties” (priority 2003, dated 2009).

Key:
human cadaver skin = details: tritiated water, Hirvonen et al (1993)
mice = details: mouse, in vivo, ip

| SMILES | increase of skin permeability to T2O (enhanced flux over passive flux) (human cadaver skin) [times] | LD50 (mice) [mg/kg] |
| --- | --- | --- |
| CCCCCCCCCCCCN1CCCCCC1=O [Azone, 1-dodecylazacycloheptane-2-one] | 8 | 232 |
| CCCCCCCCCCCCOC(=O)CN(C)C [dodedyl, (N,N-dimethyl amino) acetate, dodecyl (N N-dimethyl amino) acetate] | 13 |  |
